According to publication PMC6722010 (Molecular pharmaceutics, 2019):

How the values were obtained:
[1] = tested on: PSMA; test: in vivo 68Ga-PSMA-11 blocking, PET imaging and biodistribution; details: 22Rv1 xenograft mice; organs gamma counted
[2] = solubility; assay type: physicochemical; details: water / buffer

N[C@@H](Cc1ccc(B(O)O)cc1)C(=O)O [BPA, 4-borono-L-phenylalanine]
68Ga-PSMA-11 biodistribution, uptake in kidney, spleen and tumor [1]: did not significantly block uptake | solubility [2]: low solubility in buffer
